Experimental data reported in patent publication US20200239530A1, “COMPOUNDS AND METHODS OF MODULATING PROTEIN DEGRADATION” (Vividion Therapeutics, Inc., priority 2017, published 2020).

How the values were obtained:
[1] = biological target: T1, NAA15 N-alpha-acetyltransferase 15, NatA auxiliary subun (Homo sapiens, UniProt Q9BXJ9); test: Cysteine liganding, probe competition; assay type: binding
T1 construct: Cells were resuspended in cold PBS on ice and sonicated with a probe sonicator to achieve lysis; endogenous in cells
T1 sequence (Q9BXJ9 1-866): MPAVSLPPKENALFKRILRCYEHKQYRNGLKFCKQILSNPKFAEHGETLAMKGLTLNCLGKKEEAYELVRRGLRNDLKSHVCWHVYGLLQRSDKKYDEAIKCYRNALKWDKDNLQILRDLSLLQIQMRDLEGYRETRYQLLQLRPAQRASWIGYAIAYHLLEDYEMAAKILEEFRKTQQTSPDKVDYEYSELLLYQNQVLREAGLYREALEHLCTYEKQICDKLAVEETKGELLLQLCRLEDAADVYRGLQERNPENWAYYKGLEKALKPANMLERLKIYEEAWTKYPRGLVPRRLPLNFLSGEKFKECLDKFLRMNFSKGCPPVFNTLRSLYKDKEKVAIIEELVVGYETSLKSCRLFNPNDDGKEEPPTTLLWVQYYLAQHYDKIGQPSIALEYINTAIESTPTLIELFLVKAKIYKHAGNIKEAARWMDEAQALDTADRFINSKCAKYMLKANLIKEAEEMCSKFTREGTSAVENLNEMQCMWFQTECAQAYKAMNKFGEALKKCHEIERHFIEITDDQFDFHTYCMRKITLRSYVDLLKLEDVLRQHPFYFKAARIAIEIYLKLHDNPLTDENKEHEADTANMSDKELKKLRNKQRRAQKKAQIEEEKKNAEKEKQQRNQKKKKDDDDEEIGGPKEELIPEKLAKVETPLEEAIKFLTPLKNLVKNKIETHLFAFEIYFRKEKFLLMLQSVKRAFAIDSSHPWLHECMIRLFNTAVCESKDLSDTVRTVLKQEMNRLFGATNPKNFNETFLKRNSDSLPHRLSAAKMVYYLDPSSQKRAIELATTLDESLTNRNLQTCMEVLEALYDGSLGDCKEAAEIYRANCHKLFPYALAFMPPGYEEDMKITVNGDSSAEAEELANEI
Method in brief: (§1)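 Probe competition in native proteome: 5 mg/ml lysate, compound 1 hr 25° C, then desthiobiotin iodoacetamide (10 mM stock) 1 hr 25° C; acetone ppt, urea/DTT reduction, iodoacetamide alkylation, trypsin, streptavidin pull-down.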

[2] = biological target: T2, GAMT Guanidinoacetate N-methyltransferase (Homo sapiens, UniProt Q14353); test: Cysteine liganding, probe competition; assay type: binding
T2 construct: 200 μL of lysate containing 5 mg/ml proteome was treated with 2 μL of 100× compound stock; endogenous in cells
Method in brief: as §1

| SMILES | 100 Max ([1]; uniprot Q9BXJ9) | 100 ave ([1]; uniprot Q9BXJ9) | 500 Max ([1]; uniprot Q9BXJ9) | 500 ave ([1]; uniprot Q9BXJ9) | 100 Max ([2]; uniprot Q14353) | 100 ave ([2]; uniprot Q14353) | 500 ave ([2]; uniprot Q14353) | 500 Max ([2]; uniprot Q14353, in % (unit assumed)) | Liganded ([1]; NAA15 Res# 817, uniprot Q9BXJ9) | Liganded ([2]; GAMT Res# 91, uniprot Q14353) |
| --- | --- | --- | --- | --- | --- | --- | --- | --- | --- | --- |
| O=C(CCl)Nc1cc(C(F)(F)F)cc(C(F)(F)F)c1 [KBO3] | −21.23 | −31.6767 | 14.66 | 14.66 | −9.9 | −25.93 | 6.05 | 16.85 | – | – |
| COc1ccc2c(c1)CCCN2C(=O)CCl [KB02] | – | – | – | – | – | – | – | – | YES | YES |
